Laboratory results reported in US4698355A, “Anti-hypertensive agents” (University of Miami, priority 1979, dated 1987).
Non-standard residues stand in square brackets, D forms with d. Residues, ends and D or L forms follow the SMILES beside them. No end group written: not given here. *: point of attachment. pGlu = O=C1CC[C@@H](C(=O)O)N1; Bz = O=C(c1ccccc1)*

How the values were obtained:
ACE = details: cited from earlier work
human urinary ACE = test: ACE activity assay (Benzoyl-GlyHisLeu substrate); format: biochemical; details: 0.05 M Hepes pH 8.0, 37° C.
From the text: The role of ACE in the pathogenesis of hypertension has prompted a search for inhibitors of the enzyme that could act as antihypertensive drugs. See for example U.S. Pat. Nos. 3,891,616, 3,947,575, 4,052,511 and 4,053,651. […] 6, 1977, and in scientific articles by Cushman, D. W. et al., Biochemistry 16, 5484 (1977), and by Ondetti, M. et al., Science 196, 441 (1977). […] These factors include the source of enzyme, its purity, the substrate used and its concentration, and the composition of the assay buffer. All I50 data reported herein have been performed with the same assay system and same enzyme (human urinary ACE) and with an approximately 1/2 Km level of substrate and are therefore internally consistent. Discrepancies with data obtained by other workers may be observed. Indeed such discrepancies do exist in the literature, for unknown reasons. See, for example, the I50 values for BPP9a reported by Cushman, D. W., et al., Experientia 29, 1032 (1973) and by Dorer, F. E., et al., Biochim. Biophys. Acta 429, 220 (1976).
ACE activity assay. For most experiments described herein, the enzyme was assayed in 0.05 M Hepes buffer, pH 8.0 containing 0.1 M NaCl and 0.75 M Na2 SO4. […] Enzyme was diluted in the above buffer such that 40 μl buffered enzyme was capable of hydrolyzing 13% of substrate in a 15-minute incubation at 37° C. […]

angiotensin I [1] = test: Intravenous effectiveness: blood pressure response to angiotensin I in anesthetized rats; format: in vivo, rat; details: intravenous 2 μmol/kg
Method: (§1) Rats (210-290 g body weight) were fasted overnight and then anesthetized with intraperitoneal pentobarbital, 50-60 mg/kg. Tracheostomy was performed and the animals were ventilated mechanically. A cannula was inserted into a femoral vein for injection of angiotensin I, and a second cannula was inserted into a common carotid artery for direct measurement of arterial blood pressure. Heparin, 1,000 units, was injected via the femoral vein to prevent coagulation. Blood pressure was measured with a pressure transducer connected to a polygraph. The rats were injected with […] of angiotensin I in 20 μl of 0.9 g % NaCl; an amount of angiotensin I sufficient to raise mean arterial blood pressure by 38 mm Hg. After the responsiveness of a given rat to angiotensin I was established, the named compound at 20 μmol/kg (drug dissolved in 0.15 ml of H2 O plus 10 μl of 1 N NaHCO3), was given via a stomach tube. At timed intervals, the effects of 400 ng/kg of angiotensin I on mean arterial blood pressure were tested. Results are shown below:
Anesthetized rats were prepared as described in Example 18. After the control reponse to 400 ng/kg angiotensin I was measured for a given rat, the named compound was administered via a femoral vein. The dose was 2 μmol/kg of the named compound in 15 μl 0.01 N sodium bicarbonate. The results are shown as percent of the control response.

angiotensin I [2] = test: Oral effectiveness: blood pressure response to angiotensin I in anesthetized rats; format: in vivo, rat; details: oral 20 μmol/kg
Method: as §1, with “tested.” for “tested. Results are shown below:”

Molecule: C[C@H](NC(=O)[C@H](Cc1c[nH]c2ccccc12)NC(=O)[C@H](CCCCN)NC(=O)[C@@H]1CCC(=O)N1)C(=O)N1CCC[C@H]1C(=O)O [BPP5a, <GluLysTrpAlaPro] ([pGlu]KWAP-OH)
- Km relative to angiotensin I (competitive substrate) (ACE): lower Km than angiotensin I

Molecule: CC(C)C[C@H](NC(=O)[C@H](Cc1cnc[nH]1)NC(=O)CNC(=O)c1ccccc1)C(=O)O [Benzoyl-GlyHisLeu] (Bz-Gly-His-Leu-OH)
- Km (human urinary ACE): ~200 µM

Molecule: C[C@H](CSC(=O)[C@H](Cc1ccccc1)NC(=O)[C@@H]1CCC(=O)N1)C(=O)N1CCC[C@H]1C(=O)O [Example 15, N^α - [3-(Pyro-L-glutamyl-L-phenylalanylthio)-2-D-methylpropanoyl]-L-proline]
- Blood pressure response to 400 ng/kg angiotensin I (angiotensin I [1]; 5 min): 18 % of control
- Blood pressure response to 400 ng/kg angiotensin I (angiotensin I [1]; 11 min): 21 % of control
- Blood pressure response to 400 ng/kg angiotensin I (angiotensin I [1]; 14 min): 24 % of control
- Blood pressure response to 400 ng/kg angiotensin I (angiotensin I [1]; 17 min): 29 % of control
- Blood pressure response to 400 ng/kg angiotensin I (angiotensin I [1]; 20 min): 34 % of control
- Blood pressure response to 400 ng/kg angiotensin I (angiotensin I [1]; 24 min): 42 % of control
- Blood pressure response to 400 ng/kg angiotensin I (angiotensin I [1]; 32 min): 47 % of control
- Blood pressure response to 400 ng/kg angiotensin I (angiotensin I [1]; 43 min): 53 % of control
- Blood pressure response to 400 ng/kg angiotensin I (angiotensin I [1]; 49 min): 58 % of control
- Blood pressure response to 400 ng/kg angiotensin I (angiotensin I [1]; 56 min): 61 % of control
- Blood pressure response to 400 ng/kg angiotensin I (angiotensin I [1]; 71 min): 71 % of control
- Blood pressure response to 400 ng/kg angiotensin I (angiotensin I [1]; 76 min): 68 % of control
- Blood pressure response to 400 ng/kg angiotensin I (angiotensin I [1]; 88 min): 76 % of control
- Blood pressure response to 400 ng/kg angiotensin I (angiotensin I [1]; 99 min): 76 % of control
- Blood pressure response to 400 ng/kg angiotensin I (angiotensin I [1]; 109 min): 74 % of control
- Blood pressure response to 400 ng/kg angiotensin I (angiotensin I [1]; 125 min): 84 % of control
- Blood pressure response to 400 ng/kg angiotensin I (angiotensin I [1]; +1/2 min (30 sec.)): 8 % of control
- Blood pressure response to 400 ng/kg of Angiotensin I (angiotensin I [2]; 5 min): 66 % of Control
- Blood pressure response to 400 ng/kg of Angiotensin I (angiotensin I [2]; 15 min): 26 % of Control
- Blood pressure response to 400 ng/kg of Angiotensin I (angiotensin I [2]; 18 min): 26 % of Control
- Blood pressure response to 400 ng/kg of Angiotensin I (angiotensin I [2]; 21 min): 21 % of Control
- Blood pressure response to 400 ng/kg of Angiotensin I (angiotensin I [2]; 25 min): 21 % of Control
- Blood pressure response to 400 ng/kg of Angiotensin I (angiotensin I [2]; 29 min): 24 % of Control
- Blood pressure response to 400 ng/kg of Angiotensin I (angiotensin I [2]; 39 min): 18 % of Control
- Blood pressure response to 400 ng/kg of Angiotensin I (angiotensin I [2]; 44 min): 16 % of Control
- Blood pressure response to 400 ng/kg of Angiotensin I (angiotensin I [2]; 49 min): 16 % of Control
- Blood pressure response to 400 ng/kg of Angiotensin I (angiotensin I [2]; 54 min): 18 % of Control
- Blood pressure response to 400 ng/kg of Angiotensin I (angiotensin I [2]; 60 min): 18 % of Control
- Blood pressure response to 400 ng/kg of Angiotensin I (angiotensin I [2]; 74 min): 18 % of Control
- Blood pressure response to 400 ng/kg of Angiotensin I (angiotensin I [2]; 86 min): 21 % of Control
- Blood pressure response to 400 ng/kg of Angiotensin I (angiotensin I [2]; 110 min): 21 % of Control
- Blood pressure response to 400 ng/kg of Angiotensin I (angiotensin I [2]; 120 min): 26 % of Control
- Blood pressure response to 400 ng/kg of Angiotensin I (angiotensin I [2]; 132 min): 26 % of Control
- Blood pressure response to 400 ng/kg of Angiotensin I (angiotensin I [2]; 142 min): 26 % of Control
- Blood pressure response to 400 ng/kg of Angiotensin I (angiotensin I [2]; +1 min): 53 % of Control

Molecule: RPPGFSPFR [bradykinin]
- Km relative to angiotensin I (competitive substrate) (ACE): lower Km than angiotensin I
